In publication PMC12040169 (PLOS Biology, 2025) one finds viability data, which are given here for 80 molecules.

The structures appear in SMILES notation.

The data set in a line: in vitro. Conditions: human, hela cells, % viability.

For `OC(COCc1ccc(Cl)cc1)CN1CCN(C(c2ccccc2)c2ccccc2)CC1` (centres unmarked) [CBK074857C], the viability at 28.5 h, 10 µM was 86.3%.

As to `Cc1ccc(Nc2nc(N)nc(-c3cc4ccccc4o3)n2)cc1` [CBK288222], the viability at 28.5 h, 10 µM is 105%.

Turning to `CCC1(CC)OC(N[C@@H](C)c2ccccc2C(F)(F)F)=NC1=O` [CBK122691], the viability at 28.5 h, 10 µM came to 91.2%.

`O=C1c2ccc(S(=O)(=O)c3ccc4c(c3)C(=O)N(CCO)C4=O)cc2C(=O)N1CCO` [CBK023065]: the viability at 28.5 h, 10 µM was 112%.

For `CC1(C)CC(=O)C2=C(C1)Nc1ncnn1C2c1ccccc1F` (centres unmarked) [CBK266446], the viability at 28.5 h, 10 µM turned out to be 88%.

In the case of `Cc1ccc(C(=O)N2CCN(S(=O)(=O)c3cccc([N+](=O)[O-])c3)CC2)cc1` [CBK266259], the viability at 28.5 h, 10 µM was determined as 102%.

Turning to `Cc1cc(C)n(C(CC(=O)N2CCCCC2)C(=O)O)n1` (centres unmarked) [CBK286806], the viability at 28.5 h, 10 µM is 85.6%.

With `Cc1cc(NCCc2ccc(=O)[nH]c2)nc(-c2cc(F)c(F)cc2F)n1` [CBK144636C], the viability at 28.5 h, 10 µM was found to be 99.3%.

As for `O=C(c1ccccc1)N1CCCCC1` [CBK012821], the viability at 28.5 h, 10 µM was 99.1%.

In the case of `Cc1cccc(CN2CCC(NC(=O)C3(C#N)CCCC3)CC2)c1` [CBK305781], the viability at 28.5 h, 10 µM was 91.8%.

Turning to `CC(C)(C)c1ccccc1NC(=O)N1CCC2(CC1)OCCO2` [CBK043720], the viability at 28.5 h, 10 µM (bulk resorufin, single well) was determined as 91.3%.

For the molecule `Cc1ccc(CNC(=O)C2CCN(S(=O)(=O)N3CCOCC3)CC2)cc1` [CBK294467], the viability at 28.5 h, 10 µM turned out to be 103%.

On to `Cc1c(C)n(O)[n+]([O-])c1-c1ccccc1` [CBK264510N], for which the viability at 28.5 h, 10 µM came out at 103%.

As to `Oc1cc2cccnc2nc1-c1ccc(OCc2ccccc2)c(F)c1` [CBK073708], the viability at 28.5 h, 10 µM was determined as 91.2%.

With `Cc1noc(C)c1NC(=O)c1c(-c2ccccc2)noc1C` [CBK200314], the viability at 28.5 h, 10 µM turned out to be 91.8%.

With `S=c1[nH]nnn1-c1ccc(Cl)c(Cl)c1` [CBK016327], the viability at 28.5 h, 10 µM came to 96.7%.

As to `CC(NC(=O)C1C=CCN1S(C)(=O)=O)c1ccc2c(c1)CCC2` (centres unmarked) [CBK282667], the viability at 28.5 h, 10 µM was 88.7%.

For the molecule `CCN(CC)CCCNc1c([N+](=O)[O-])c(=O)n(C)c2ccccc12` [CBK264893], the viability at 28.5 h, 10 µM amounted to 112%.

For `CC(C)(C)OC(=O)N1CCC(Oc2cncc(Cl)n2)CC1` [CBK001762], the viability at 28.5 h, 10 µM was 98%.

As to `O=C(COc1ccc(S(=O)(=O)NC2CCCCC2)cc1)Nc1ccc2c(c1)OCO2` [CBK265960], the viability at 28.5 h, 10 µM is 84.5%.

For `CCCc1n[nH]c(C2CC2)c1C(=O)OCC` [CBK115714], the viability at 28.5 h, 10 µM was determined as 115%.

As to `CC1CCN(S(=O)(=O)c2ccc(NC(=O)COc3ccc4ccccc4c3)cc2)CC1` [CBK264969], the viability at 28.5 h, 10 µM stood at 96.7%.

As to `C=C(C)Cn1c(SCC(C)C)nnc1-c1ccccc1F` [CBK200077], the viability at 28.5 h, 10 µM was 107%.

Turning to `CN(Cc1ccc(-c2ccc(S(C)(=O)=O)cc2)nc1)C1CCNCC1` [CBK163942], the viability at 28.5 h, 10 µM was determined as 99.1%.

`COc1cc(NC(=O)c2cc3c4c(sc3nc2N)CN(C)CC4)c(OC)c(OC)c1` [CBK269597]: the viability at 28.5 h, 10 µM was 77.1%.

`O=C(c1ccco1)N1CCC[C@H]1[C@H](O)c1nccs1` [CBK284286]: the viability at 28.5 h, 10 µM was 98.5%.

On to `CCCC1CCN(Cc2ccn(Cc3ccc(S(C)(=O)=O)cc3)c2)CC1` [CBK144937], for which the viability at 28.5 h, 10 µM worked out at 94.4%.

With `CCSc1nc2ccccc2n1CC(=O)O` [CBK262059], the viability at 28.5 h, 10 µM came to 87.7%.

With `Cc1ccsc1C(=O)N1CCN(Cc2cc(=O)n3ccccc3n2)CC1` [CBK305044], the viability at 28.5 h, 10 µM is 102%.

Turning to `CC(=O)N1CCc2c([nH]c3cc(F)ccc23)C12CCN(CCC#N)CC2` [CBK039692], the viability at 28.5 h, 10 µM was 95.7%.

As to `CS(=O)(=O)CCNC(=O)c1cnc(-c2cccc(C(F)(F)F)c2)c(-c2ccncc2)c1` [CBK036661], the viability at 28.5 h, 10 µM came to 105%.

With `COC(=O)c1ccc2c(=O)n(CCN3CCOCC3)c(=S)[nH]c2c1` [CBK268553], the viability at 28.5 h, 10 µM turned out to be 69%.

Consider `O=C(c1cccc2ncccc12)N1CCC(c2ccncc2)CC1` [CBK283798], for which the viability at 28.5 h, 10 µM amounted to 84.2%.

Take `N#Cc1c2c(c3nncn3c1Nc1ccccc1)CCCC2` [CBK288197]: the viability at 28.5 h, 10 µM was 97.7%.

As for `Cc1nnc(C(C)Sc2nnc(-c3ccc(F)cc3)n2CC2CCCO2)o1` (centres unmarked) [CBK298298], the viability at 28.5 h, 10 µM turned out to be 94.4%.

In the case of `Cc1cccnc1NC(=O)c1ccc(NC(C)C)c([N+](=O)[O-])c1` [CBK269494], the viability at 28.5 h, 10 µM was 86.1%.

As to `O=C(CC1CC1)NCc1ccc(-c2csnn2)cc1` [CBK149287], the viability at 28.5 h, 10 µM is 92.8%.

With `CC1CC(=O)C2=C(C1)NN=C(c1cccc(C(F)(F)F)c1)C2` (centres unmarked) [CBK020138], the viability at 28.5 h, 10 µM was 86.9%.

Consider `O=C(O)c1cnc(NCC2CCCCCC2)[nH]c1=O` [CBK023792], for which the viability at 28.5 h, 10 µM was 88.8%.

For `Cc1n[nH]c(C)c1C12CC3CC(CC(CC(=O)O)(C3)C1)C2` [CBK288241], the viability at 28.5 h, 10 µM stood at 92.2%.

Regarding `CCN1CCN(c2c(Cl)cccc2NC(=O)c2ccc(N3CCOCC3)c([N+](=O)[O-])c2)CC1` [CBK269066], the viability at 28.5 h, 10 µM is 98.8%.

Turning to `Cc1cnn(C2CCN(C(=O)NC(C)C3OCCc4sccc43)C2)c1` (centres unmarked) [CBK304159], the viability at 28.5 h, 10 µM was found to be 96.8%.

`FC(F)(F)c1ccnc(OCCN2CCOCC2)c1` [CBK113286]: the viability at 28.5 h, 10 µM was determined as 97.1%.

For the molecule `Cc1n[nH]c(C)c1Sc1ccccc1/N=C/c1ccccc1O` [CBK262068], the viability at 28.5 h, 10 µM amounted to 93%.

On to `COCCN1CCCC(NS(=O)(=O)c2cccc(C(C)=O)c2)C1` (centres unmarked) [CBK305290], for which the viability at 28.5 h, 10 µM came out at 94.7%.

Consider `O=C1CC2(CCN(C(=O)C3CCCC3)CC2)Oc2ccc(Cl)cc21` [CBK283625], for which the viability at 28.5 h, 10 µM was found to be 90.9%.

Take `COc1ccc(C(=O)COC(=O)c2cccc(N3C(=O)C4C5C=C(C)C(C5)C4C3=O)c2)cc1` (centres unmarked) [CBK264808]: the viability at 28.5 h, 10 µM came to 94.1%.

For the molecule `Cc1cc(Cl)ccc1NC(=O)COCC(=O)O` [CBK057723], the viability at 28.5 h, 10 µM amounted to 104%.

As to `O=C(O)CC1C(=O)NCCN1Cc1cccc(C(F)(F)F)c1` (centres unmarked) [CBK269958], the viability at 28.5 h, 10 µM came to 91.1%.

On to `C=CCn1c2cc(C)sc2c2cnn(CC(=O)N(C)C)c(=O)c21` [CBK284164], for which the viability at 28.5 h, 10 µM came to 83.9%.

Regarding `CC(C)(C)c1ccc(C(=O)N2CC[C@H]3NC(=O)N(Cc4ccccc4)C(=O)[C@H]32)cc1` [CBK289294], the viability at 28.5 h, 10 µM was 86%.

Turning to `COc1ccccc1NC(=O)N1C[C@@H]2C[C@H](C1)c1ccc(-c3cncnc3)c(=O)n1C2` [CBK289186], the viability at 28.5 h, 10 µM was determined as 114%.

Take `O=C(CN1C(=O)c2ccccc2C1=O)Nc1nc(-c2ccccc2)cs1` [CBK287343]: the viability at 28.5 h, 10 µM came out at 106%.

As to `Cc1nc2c(c(=O)[nH]1)CN(C1CCCCC1)CC2` [CBK282416], the viability at 28.5 h, 10 µM came to 82.2%.

`CN(CCc1cnn(C)c1)C(=O)NCCCN1CCCC1=O` [CBK307008]: the viability at 28.5 h, 10 µM was determined as 91.1%.

Turning to `O=C(Nc1ccccc1)c1onc2c1CCCC2` [CBK058703], the viability at 28.5 h, 10 µM stood at 108%.

For `CC(C)(C)C(=O)CSc1nnc(Cn2cnc(Cl)c2Cl)o1` [CBK011055], the viability at 28.5 h, 10 µM stood at 81.2%.

As for `O=S(=O)(NCc1ccccc1)c1cccc2nonc12` [CBK265692], the viability at 28.5 h, 10 µM turned out to be 90.4%.

Regarding `CCOc1ccc(S(=O)(=O)N2CCC(C(=O)NCCO)CC2)cc1` [CBK269817], the viability at 28.5 h, 10 µM was 88.6%.

On to `COc1cccc(CNC(C)(C)CO)c1OCc1ccc(Cl)cc1` [CBK266552C], for which the viability at 28.5 h, 10 µM came out at 102%.

On to `CN1CCCN(c2cncc(-c3ccc4c(c3)OCO4)n2)CC1` [CBK065978], for which the viability at 28.5 h, 10 µM is 91.7%.

With `NS(=O)(=O)c1ccc(CNC(=O)C2(c3ccccc3)CCCC2)cc1` [CBK161523], the viability at 28.5 h, 10 µM stood at 101%.

For the molecule `O=C(NCc1ccccc1)c1ccccc1NS(=O)(=O)c1ccccc1F` [CBK113881], the viability at 28.5 h, 10 µM was 106%.

`CN1CCN(c2ccc(-c3cc(NC4CCCCC4)ncn3)cn2)CC1` [CBK090899]: the viability at 28.5 h, 10 µM worked out at 96.7%.

In the case of `CN(Cc1cnn(C)c1)C(=O)c1ccc(Cl)cc1Br` [CBK305404], the viability at 28.5 h, 10 µM came out at 93%.

As for `CC(NC(=O)C1CCN(CCOc2ccccc2)CC1)c1ccccc1` (centres unmarked) [CBK148610], the viability at 28.5 h, 10 µM worked out at 91.5%.

Turning to `Cc1cccc2cc(CN(Cc3cccnc3)C(=O)Nc3ccccc3Cl)c(=O)[nH]c12` [CBK108869], the viability at 28.5 h, 10 µM is 97.9%.

Consider `O=C(c1ccccc1NS(=O)(=O)c1ccc(C(F)(F)F)cc1[N+](=O)[O-])N1CCOCC1` [CBK043353], for which the viability at 28.5 h, 10 µM came out at 84.4%.

For `Cc1nc(=O)c(-c2ccccc2)c(C)n1CCCCCC(=O)O` [CBK287060], the viability at 28.5 h, 10 µM is 113%.

With `Cc1noc(C)c1S(=O)(=O)NCc1ccc(C(F)(F)F)c(F)c1` [CBK062112], the viability at 28.5 h, 10 µM turned out to be 94.2%.

For `c1ccc(Oc2nc3ccccc3n3cnnc23)cc1` [CBK287945], the viability at 28.5 h, 10 µM amounted to 91.9%.

In the case of `Cc1ccc(C(=O)CSc2nc(O)c3nc[nH]c3n2)cc1` [CBK300520], the viability at 28.5 h, 10 µM was determined as 119%.

On to `c1cnc(NCc2cc3n(n2)CCN(CC2CCCCO2)C3)cn1` (centres unmarked) [CBK306891], for which the viability at 28.5 h, 10 µM stood at 96.4%.

As to `CC(=O)NCc1cccc(-c2cc(COc3ccc4c(c3)OCO4)cnc2-c2ccc(Cl)cc2)c1` [CBK164106A], the viability at 28.5 h, 10 µM was determined as 105%.

`CN(C(=O)OC(C)(C)C)C1CN(C(c2ccccc2)c2ccccc2)C1` [CBK008111]: the viability at 28.5 h, 10 µM was 89.8%.

`O=C(NC(n1cnc2c(N3CCCCC3)ncnc21)C(Cl)(Cl)Cl)c1ccccc1` (centres unmarked) [CBK261038]: the viability at 28.5 h, 10 µM came out at 98.5%.

`CS(=O)(=O)N1C[C@@H]2CCCCN(Cc3cccc(F)c3)[C@@H]2C1` [CBK285514]: the viability at 28.5 h, 10 µM turned out to be 103%.

Regarding `Cc1ccc(S(=O)(=O)N(C)CC(=O)O/N=C(\N)c2cccnc2)cc1` [CBK266717], the viability at 28.5 h, 10 µM was determined as 110%.

Take `Cc1ccc(S(=O)(=O)Nc2nccnc2-c2ccc(Cc3nnn[nH]3)cc2)cc1` [CBK073841]: the viability at 28.5 h, 10 µM was 96.9%.

Take `O=C(c1ccc(=O)[nH]n1)N1C2CCC1CC(c1ccc(F)cc1)C2` (centres unmarked) [CBK283737]: the viability at 28.5 h, 10 µM came to 94.4%.

In general, viability refers to a read-out of living cells in per cent, often relative to untreated cells.
